# Laboratory results from article PMC8330742, “New benzothieno[2,3-c]pyridines as non-steroidal CYP17 inhibitors: design, synthesis, anticancer screening, apoptosis induction, and in silico ADME profile studies” (Journal of Enzyme Inhibition and Medicinal Chemistry, 2021).
# Like-named read-outs stand apart in the source and are kept apart here.
# Legend:
# Experiment in all cases: NCI-60 SRB screen
# RPMI-8226 = type: cell-based; details: Homo sapiens, single dose 10^−5 M, read-out: Growth inhibition (%)
# SF-539 = type: cell-based, human; details: Homo sapiens; single dose 10^−5 M; SF-539, CNS cancer; read-out: Growth inhibition (%)
# SNB-19 = type: cell-based; details: Homo sapiens; single dose 10^−5 M; SNB-19, CNS cancer; read-out: Growth inhibition (%)
# SNB-75 = type: cell-based, human; details: Homo sapiens; single dose 10^−5 M; SNB-75, CNS cancer; read-out: Growth inhibition (%)
# U251 = type: cell-based, human; details: Homo sapiens, U-251; single dose 10^−5 M; U251, CNS cancer; read-out: Growth inhibition (%)
# OVCAR-5 = type: cell-based, human; details: Homo sapiens, single dose 10^−5 M, read-out: Growth inhibition (%)
# SK-OV-3 = type: cell-based, human; details: Homo sapiens, single dose 10^−5 M, read-out: Growth inhibition (%)
# A498 = type: cell-based, human; details: Homo sapiens, single dose 10^−5 M, read-out: Growth inhibition (%)
# PC-3 = type: cell-based, human; details: Homo sapiens, single dose 10^−5 M, read-out: Growth inhibition (%)
# DU-145 = type: cell-based, human; details: Homo sapiens, single dose 10^−5 M, read-out: Growth inhibition (%)
# MCF7 = type: cell-based, human; details: Homo sapiens, read-out: Growth inhibition (%)
# MDA-MB-231/ATCC = type: cell-based, human; details: Homo sapiens, single dose 10^−5 M, read-out: Growth inhibition (%)
# BT-549 = type: cell-based, human; details: Homo sapiens, single dose 10^−5 M, read-out: Growth inhibition (%)
# T-47D = type: cell-based, human; details: Homo sapiens, T47D, single dose 10^−5 M, read-out: Growth inhibition (%)
# MDA-MB-468 = type: cell-based, human; details: Homo sapiens, single dose 10^−5 M, read-out: Growth inhibition (%)
# [1] = single dose 10^−5 M, MCF-7, Breast cancer
SMILES,"inhibition at 10 µM (RPMI-8226; RPMI-8226, Leukaemia) [%]",inhibition at 10 µM (SF-539) [%],inhibition at 10 µM (SNB-19) [%],inhibition at 10 µM (SNB-75) [%],inhibition at 10 µM (U251) [%],"inhibition at 10 µM (OVCAR-5; OVCAR-5, Ovarian cancer) [%]","inhibition at 10 µM (SK-OV-3; SK-OV-3, Ovarian cancer) [%]","inhibition at 10 µM (A498; A498, Renal cancer) [%]","inhibition at 10 µM (PC-3; PC-3, Prostate cancer) [%]","inhibition at 10 µM (DU-145; DU-145, Prostate cancer) [%]",inhibition at 10 µM (MCF7; [1]) [%],"inhibition at 10 µM (MDA-MB-231/ATCC; MDA-MB 231/ATCC, Breast cancer) [%]","inhibition at 10 µM (BT-549; BT-549, Breast cancer) [%]",inhibition at 10 µM (T-47D; Breast cancer) [%],"inhibition at 10 µM (MDA-MB-468; MDA-MB-468, Breast cancer) [%]",further results
"N#CC1=C(Nc2ccccc2F)NC(c2cccc([N+](=O)[O-])c2)c2sc3c(F)cccc3c21 (centres unmarked) [Compound 10, 4-Cyano-8-fluoro-3((2-fluorophenyl)amino)-1–(3-nitrophenyl)-1,2-dihydro[1]benzothieno[2,3-c]pyridine]",1.46,6.04,-3.45,10.1,-9.9,-3.49,10.1,3.94,7.8,-8.61,4.92,17.4,1.04,-2.94,-7.35,
"CCN1CCN(C2=C(Cl)c3c(sc4c(F)cccc34)C(c3cccc([N+](=O)[O-])c3)N2)CC1 (centres unmarked) [Compound 8a, 4-Chloro-3–(4-ethylpiperzin-1-yl)-8-fluoro-1-(3-nitrophenyl)-1,2-dihydro [1]benzothieno[2,3-c]pyridine]",15.4,4.31,1.26,11.8,6.16,1.9,1.74,0.93,7.7,-7.24,4.08,12,9.38,11.1,-9.64,
"N#CC1=C(N2CCOCC2)NC(c2cccc([N+](=O)[O-])c2)c2sc3c(F)cccc3c21 (centres unmarked) [Compound 8e, 4-Cyano-3-(4-morpholino)-8-fluoro-1-(3-nitrophenyl)-1,2-dihydro [1]benzothieno[2,3-c]pyridine]",6.66,3.33,-0.92,7.28,-2.2,0.99,7.67,3.17,12.3,-12.3,-1.68,13.4,1.14,-4.79,-11,
"CCN1CCN(C2=C(C#N)c3c(sc4c(F)cccc34)C(c3cccc([N+](=O)[O-])c3)N2)CC1 (centres unmarked) [Compound 8d, 4-Cyano-3-(4-ethylpiperazin-1-yl)-8-fluoro-1-(3-nitrophenyl)-1,2-dihydro [1]benzothieno[2,3-c]pyridine]",1.72,6.11,-1.27,8.49,0.9,-4.1,11.5,12.1,9.1,-11.2,9.44,19.8,1.51,22.3,-2.69,
"O=C1NC(c2cccc([N+](=O)[O-])c2)c2sc3c(F)cccc3c2C1N1CCCCC1 (centres unmarked) [Compound 6c, 8-Fluoro-1-(3-nitrophenyl)-4-(piperidin-1-yl)-1,2-dihydro[1]benzothieno [2,3-c]pyridin-3(4H)-one]",,,,,,,,,,,,,,,,"inhibition at 10 µM (RPMI-8226; RPMI-8226): 5.15%; inhibition at 10 µM (OVCAR-5; OVCAR-5): -1.56%; inhibition at 10 µM (SK-OV-3; SK-OV-3): -0.84%; inhibition at 10 µM (A498; A498): 7.34%; inhibition at 10 µM (PC-3; PC-3): 8.67%; inhibition at 10 µM (DU-145; DU-145): -9.9%; inhibition at 10 µM (MCF7; MCF-7, single dose 10^−5 M): 10.2%; inhibition at 10 µM (MDA-MB-231/ATCC; MDA-MB-231, MDAMB231/ATCC): 0.28%; inhibition at 10 µM (BT-549; BT-549): 1.61%; inhibition at 10 µM (T-47D): 8.12%; inhibition at 10 µM (MDA-MB-468; MDA-MB-468): -9.31%"
